pKi: −log10 of the molar value.
What was measured:
[1] = molecular target: Casein kinase II alpha/beta (Homo sapiens, UniProt P68400); assay: ATP competitive inhibition of recombinant human CK2alpha2 (1 to 335 residues)/CK2beta2 (1 to 193 residues) expressed in Escherichia coli BL21(DE3) using RRRDDDSDDD as substrate preincubated for 10 mins followed by substrate addition and measured after 5 mins in presence of varying level of [gamma-32P]ATP by Dixon-plot analysis
[2] = molecular target: Casein kinase II alpha'/ beta (Homo sapiens) (UniProt P67870+P19784); assay: Ratio of Ki for ATP uncompetitive inhibition to Ki for ATP competitive inhibition of recombinant human CK2alpha2 (1 to 335 residues)/CK2beta2 (1 to 193 residues) expressed in Escherichia coli BL21(DE3)

Row | pKi [1] | Ratio Ki [2] | Compound
1 | 6.69 | 16.3 | O=C(O)c1ccc(Nc2nc(-c3ccc(Cl)cc3)cs2)cc1O
2 | 5.83 | 36.5 | O=C(O)c1cccc(Nc2nc(-c3ccccn3)cs2)c1

Source: ChEMBL document CHEMBL4610128, “Structural and Mechanistic Basis of the Inhibitory Potency of Selected 2-Aminothiazole Compounds on Protein Kinase CK2” (J Med Chem, 2020)
